Structures are written as SMILES. Where two headings read alike, the source gives them in different places. Bounds are passed on as bounds.

The subject of assay [1] is Influenza A/California/07/2009 (H1N1), M2 S31N. The class given is cell-based, Influenza A virus.
The next assay concerns A/WS/33 (H1N1), M2 S31N. The class given is cell-based, Influenza A virus.
In assay [2] the test system is A/PR/8/34 (H1N1), M2 V27T/S31N. Type of assay: cell-based, Influenza A virus.
A further assay deals with M2 22-62 (S31N) (Influenza A virus, UniProt P0DOF5, C50S/S31N). Type of assay: biochemical.
Assay [3] has as its system Influenza A/California/07/2009 (H1N1), M2 S31N. Particulars: cited from earlier work.
Assay [4] relates to Influenza A/California/07/2009 (H1N1). Type of assay: cell-based, Influenza A virus. Particulars: read-out: EC50 against the passage 12 7-resistant mutant.
The test system of assay [5] is Influenza A/Victoria/3/75 (H3N2). The experiment in a line: microbe, parasite or virus in culture. Type of assay: cell-based.
Setting [6] is: read-out: EC50 A/Calif/07/09 (H1N1).
Where [7] appears, read: read-out: EC50s of the drug components of the incubation mixture.

`CC1CCNC12C1CC3CC(C1)CC2C3` (stereo not shown) [Compound 343, 3-Methylspiro[pyrrolidine-2,2′-tricyclo[3.3.1.1^3,7]decane]]: the EC50 in assay [1] (setting [6]) was found to be 7.2 µM.

Regarding `CCCCCCC1(N)C2CC3CC(C2)CC1C3` (stereo not shown) [Compound 101, 2-n-hexyl-tricyclo[3.3.1.1^3,7]decan-2-amine], the EC50 in the assay with A/WS/33 (H1N1), M2 S31N is 13 µM; in assay [2] it was 0.07 µM; in assay [1] (setting [6]), 0.13 µM. In addition, the “inhibition of the A/WS/33 strain (in words)” value in the assay on A/WS/33 (H1N1), M2 S31N is given as “some inhibitory effect”.

For `CCCC1(N)C2CC3CC(C2)CC1C3` (stereo not shown) [Compound 7], the “H^+ Uptake Rate ± SD (%) (N)” value on M2 22-62 (S31N) is given as 24 ± 17 (6) %. The EC50 in the assay with A/WS/33 (H1N1), M2 S31N stood at 390 µM; in assay [2], 0.5 µM; in assay [1] (setting [6]) it was 4.7 µM; in assay [1] (read-out: EC50 ± SE (μM) (N)), 4.71 µM.

In the case of `NC1(Cc2ccccc2)C2CC3CC(C2)CC1C3` (stereo not shown) [Compound 20, (1r,3r,5r,7r)-2-benzyladamantan-2-amine], the EC50 in the assay on A/WS/33 (H1N1), M2 S31N was 280 µM; in assay [2] it was 1.2 µM; in assay [1] (setting [6]), 8.6 µM.

Regarding `NCCN1CCCC12C1CC3CC(C1)CC2C3` (stereo not shown) [Compound 12, 2-((1r,3r,5r,7r)-spiro[adamantane-2,2′-pyrrolidin]-1′-yl)ethan-1-amine], on M2 22-62 (S31N), the “H^+ Uptake Rate ± SD (%) (N)” value was 11 ± 18 (4) %. In assay [1] (read-out: EC50 ± SE (μM) (N)), the EC50 is 2.66 µM.

`O=C1CCC2(N1)C1CC3CC(C1)CC2C3` (stereo not shown) [Compound 3]: in assay [1] (read-out: EC50 ± SE (μM) (N)), the EC50 worked out at 15.6 µM.

With `CC(C)CC1(N)C2CC3CC(C2)CC1C3` (stereo not shown) [Compound 18, (1r,3r,5r,7r)-2-isobutyladamantan-2-amine], the EC50 was 210 µM in the assay with A/WS/33 (H1N1), M2 S31N; 0.3 µM in assay [2]; 8 µM in assay [1] (setting [6]).

For the molecule `CC(N)C12CC3CC(CC(C3)C1)C2` (stereo not shown) [Rimantadine (2), Rimantadine, reference compound], the “activity against H1N1 (2009) (known)” value in assay [3] was “inactive”. Further, the EC50 came to 310 µM with A/WS/33 (H1N1), M2 S31N; 3.3 µM in assay [2]; 110 µM in assay [1] (setting [6]); 106 µM in assay [1] (read-out: EC50 ± SE (μM) (N)).

Take `C1CNC(C23CC4CC(CC(C4)C2)C3)C1` (stereo not shown) [Compound 8]: the “H^+ Uptake Rate ± SD (%) (N)” value at M2 22-62 (S31N) is recorded as 12 ± 13 (5) %. The EC50 in assay [1] (read-out: EC50 ± SE (μM) (N)) is 15.4 µM.

As for `NC1(C23CC4CC(CC(C4)C2)C3)CCCCC1` [Compound 13, 1-((3r,5r,7r)-adamantan-1-yl)cyclohexan-1-amine], the EC50 in assay [4] worked out at 10 ± 2 µM; in assay [1] (read-out: EC50 ± SE (μM) (N)), 3.62 µM.

On to `NC1(C23CC4CC(CC(C4)C2)C3)CCCC1` [Compound 9], for which the “H^+ Uptake Rate ± SD (%) (N)” value at M2 22-62 (S31N) is recorded as 11 ± 25 (3) %. In addition, the EC50 is 22 ± 2 µM in assay [4], 0.36 µM in assay [1] (setting [7]) and 0.79 µM in assay [1] (read-out: EC50 ± SE (μM) (N)).

Consider `CCCCC1(N)C2CC3CC(C2)CC1C3` (stereo not shown) [Compound 17, (1r,3r,5r,7r)-2-butyladamantan-2-amine], for which the EC50 turned out to be 355 µM in the assay on A/WS/33 (H1N1), M2 S31N; 0.3 µM in assay [2]; 8.5 µM in assay [1] (setting [6]).

In the case of `C1CCC(C23CC4CC(CC(C4)C2)C3)NC1` (stereo not shown) [Compound 10], the EC50 came out at 2.8 µM in assay [1] (setting [7]) and 7 µM in assay [1] (read-out: EC50 ± SE (μM) (N)).

With `CC1CCN(C)C12C1CC3CC(C1)CC2C3` (stereo not shown) [Compound 346, 1,3-dimethylspiro[pyrrolidine-2,2′-tricyclo [3.3.1.1^3,7]decane]], the EC50 in assay [1] (setting [6]) was 10.2 µM.

For the molecule `CC1CN(C)C2(C1)C1CC3CC(C1)CC2C3` (stereo not shown) [Compound 345, 1,4-dimethylspiro[pyrrolidine-2,2′-tricyclo [3.3.1.1^3,7]decane]], the EC50 in assay [1] (setting [6]) stood at 7 µM.

Take `CCC1CCC2(N1)C1CC3CC(C1)CC2C3` (stereo not shown) [Compound 347, 5-ethylspiro[pyrrolidine-2,2′-tricyclo[3.3.1.1^3,7]decane]]: the EC50 in assay [1] (setting [6]) worked out at 8.7 µM.

Consider `CC(C)(N)C12CC3CC(CC(C3)C1)C2` [Compound 259, 2-(adamantan-1-yl)propan-2-amine], for which the EC50 was 300 µM in the assay on A/WS/33 (H1N1), M2 S31N; below 0.2 µM in assay [2]; 24 µM in assay [1] (setting [6]).

Turning to `C1CCC2(NC1)C1CC3CC(C1)CC2C3` (stereo not shown) [Compound 6], at M2 22-62 (S31N), the “H^+ Uptake Rate ± SD (%) (N)” value is given as 1.3 ± 5.7 (6) %. For the same molecule, the EC50 in assay [1] (read-out: EC50 ± SE (μM) (N)) was 19.8 µM.

With `CC12CC3CC(CC(C3)C13CCCN3)C2` [Compound 11, (1r,3s,5R,7S)-1-methylspiro[adamantane-2,2′-pyrrolidine]], the “H^+ Uptake Rate ± SD (%) (N)” value at M2 22-62 (S31N) was 17 ± 8.7 (6) %. Besides, the EC50 in assay [1] (read-out: EC50 ± SE (μM) (N)) amounted to 36 µM.

As for `NC12CC3CC(CC(C3)C1)C2` [Amantadine (1), Amantadine, reference compound], at M2 22-62 (S31N), the “H^+ Uptake Rate ± SD (%) (N)” value is 77 ± 29 (8) %. Moreover, the “activity against H1N1 (2009) (known)” value in assay [3] was “inactive”. Moreover, the “EC50 ± S.E. (μM)” value in assay [5] is listed as “Inactive”. In assay [5], the Resistance development result was “complete during a single 3-4 day passage”. For the same molecule, the EC50 in assay [5] (Influenza A virus, H3N2, read-out: EC50 ± S.E. (μM)) is 2.8 ± 0.3 µM; with A/WS/33 (H1N1), M2 S31N, 24 µM; in assay [2] it was 24 µM; in assay [1] (setting [6]), 240 µM; in assay [1] (read-out: EC50 ± SE (μM) (N)), 242 µM.

As to `CC1CCC2(C3CC4CC(C3)CC2C4)N1C` (stereo not shown) [Compound 344, 1,5-Dimethylspiro[pyrrolidine-2,2′-tricyclo[3.3.1.1^3,7]decane]], the EC50 in assay [1] (setting [6]) is 7.7 µM.

Turning to `CC1CCC2(N1)C1CC3CC(C1)CC2C3` (stereo not shown) [Compound 341, 5-methylspiro[pyrrolidine-2,2′-tricyclo[3.3.1.1^3,7]decane]], the “efficacy against A/California/07/2009 (in words)” value in assay [1] is listed as “less effective than the others”. The EC50 in assay [1] (setting [6]) came out at 34 µM.

As for `CC1CNC2(C1)C1CC3CC(C1)CC2C3` (stereo not shown) [Compound 342, 4-Methylspiro[pyrrolidine-2,2′-tricyclo[3.3.1.1^3,7]decane]], the EC50 in assay [1] (setting [6]) stood at 9.5 µM.

Regarding `NC1(c2ccccc2)C2CC3CC(C2)CC1C3` (stereo not shown) [Compound 19, (1r,3r,5r,7r)-2-phenyladamantan-2-amine], the EC50 is 86 µM in the assay with A/WS/33 (H1N1), M2 S31N; below 0.3 µM in assay [2]; 21 µM in assay [1] (setting [6]); 9.2 µM in assay [1] (setting [7]).

Source of the values: patent US9840465B2 (priority 2013, dated 2017).
